Values after ≈ are worked out from the molar mass of the structure shown. Read-outs that look alike come from different tables or passages of the source.
Columns and labels:
Trichoph. rubr. = assay: Tube Dilution Test in liquid media; type: cell-based
Source text: (§1) The above mentioned greater activity against dermatophytes, yeasts and other fungi compared to "Bronopol" is illustrated in Table 1:
(§2) MIC (μg./ml.) in the Tube Dilution Test in liquid media

Asp. flav. = assay: Tube Dilution Test in liquid media; type: cell-based
Source text: as §1, §2

Pen. notat. = assay: Tube Dilution Test in liquid media; type: cell-based
Source text: as §1, §2

Trichoph. ment. = assay: Tube Dilution Test in liquid media; type: cell-based
Source text: as §1, §2

Candid. alb. = assay: Tube Dilution Test in liquid media; type: cell-based
Source text: as §1, §2

Paecilomyc. = assay: Tube Dilution Test in liquid media; type: cell-based
Source text: as §1, §2

Asp. nig. = assay: Tube Dilution Test in liquid media; type: cell-based
Source text: as §1, §2

Microsp. gypseum = assay: Tube Dilution Test in liquid media; type: cell-based
Source text: as §1, §2

Mucor. pus. = assay: Tube Dilution Test in liquid media; type: cell-based
Source text: as §1, §2

Asp. fum. = assay: Tube Dilution Test in liquid media; type: cell-based
Source text: as §1, §2

Chaet. glob. = assay: Tube Dilution Test in liquid media; type: cell-based
Source text: as §1, §2

Sacch. cer. = assay: Tube Dilution Test in liquid media; type: cell-based
Source text: as §1, §2

Fusar. = assay: Tube Dilution Test in liquid media; type: cell-based
Source text: as §1, §2

bacteria = details: known from U.S. Pat. No. 3,558,788; cited from earlier work
[1] = Sacch. cer., tube dilution test, liquid media, read-out: MIC

Structure (SMILES) | MIC (Trichoph. rubr.) [µg/mL] | MIC (Asp. flav.) [µg/mL] | MIC (Pen. notat.) [µg/mL] | MIC (Trichoph. ment.) [µg/mL] | MIC (Candid. alb.) [µg/mL] | MIC (Paecilomyc.) [µg/mL] | MIC (Asp. nig.) [µg/mL] | MIC (Microsp. gypseum) [µg/mL] | MIC (Mucor. pus.) [µg/mL] | MIC (Asp. fum.) [µg/mL] | MIC (Chaet. glob.) [µg/mL] | MIC (Sacch. cer.; [1]) [µg/mL] | MIC (Fusar.) [µg/mL] | antibacterial activity (bacteria) | MIC (Sacch. cer.) [µg/mL]
CN1CC2CCCCN2CC(Cc2ccccc2)([N+](=O)[O-])C1.Cl.Cl (centres unmarked) [4-Benzyl-2-methyl-4-nitroperhydropyrido[1,2-a] [1,4]-diazepine dihydrochloride] | 2 | 63 | 125 | 4 | 4 | 16 | 125 | 8 | 8 | 31 | 63 | 4 | – | – | –
CCCCC1([N+](=O)[O-])CN(C)CC2CCCCN2C1.Cl.Cl (centres unmarked) [4-n-Butyl-2-methyl-4-nitroperhydropyrido[1,2-a] [1,4] diazepine dihydrochloride] | 2 | 4 | 8 | 2 | 8 | 63 | 31 | 8 | 2 | 8 | 8 | 4 | 16 | – | –
O=[N+]([O-])C(Br)(CO)CO [Bronopol, 2-bromo-2-nitropropane-1,3-diol, reference compound] | 4 (≈ 20 µM) | > 1000 | > 1000 | 8 (≈ 40 µM) | 63 (≈ 315 µM) | 250 (≈ 1250 µM) | > 1000 | 16 (≈ 80 µM) | 63 (≈ 315 µM) | 63 (≈ 315 µM) | > 1000 | – | – | has antibacterial activity | 125 (≈ 625 µM)

Source: patent US3965103A, “4-Nitroperhydropyrido[1,2-a][1,4]diazepines” (Schering Aktiengesellschaft, priority 1973, dated 1976)
